According to US8716309B2, “Pharmaceutical composition comprising pyridone derivatives” (priority 2011, dated 2014):

Experiments:
human α7 nAChR = human α7 nAChR (Homo sapiens, UniProt P36544); assay: cell-based; conditions: EC50 of human α7nAChR(nM), HEK293T/17 cells transfected with human α7 nAChR; PNU-120596 added; relative to epibatidine 1 μM positive control
Male ICR mice = assay: Novel Object Recognition Test (NORT), MK-801 induced amnesia; format: in vivo; conditions: Mus musculus; po; dose at which the relative RI is given; doses 0.03˜3 mg/kg; read-out: NORT MED
From the text: A NORT, which was first introduced by Ennaceur and Delacour, is a cognitive memory test for measuring whether rats are able to remember objects with which they have had previous experience based on the nature of rats, i.e., preference to explore novel objects [Ennaceur A and Delacour J (1988) A new one-trial test for neurobiological studies of memory in rats. 1; Behavioral data. Behavioral Brain Res. 31; 47-59]. This NOR test is a popular experimental method for measuring changes in memory of objects in rodents administered with either an amnesia-inducing drug or other general drugs, by which memory recovery efficacy of a test drug in the rodents administered with the amnesia-inducing drug is explored. In the present example, the test was performed in accord with the description of Bevins and Besheer [Bevins, R. A. & Besheer, J. Object recognition in rats and mice; a one-trial non-matching-to-sample learning task to study ‘recognition memory’. Nat. Protoc. 2006; 1(3); 1306-11. (2006)]. Male ICR mice (available from Orient Bio Inc., Korea) weighing from about 20 g to about 32 g were orally administered a test compound dissolved in a 30% PEG at doses of 0.03˜3 mg/kg and 10 ml/kg body weight. 30 minutes after the administration, MK-801 (available from Sigma) dissolved in saline was subcutaneously administered at doses of 0.1 mg/kg and 10 ml/kg body weight to induce amnesia. About 30 minutes after the administration of MK-801, the mice were allowed to explore a rectangular stainless steel pillar or a circular plastic pillar which was previously placed in a box for about 5 minutes. About 24 hours after the exploration, one of the two objects previously presented was replaced with a new one (i.e., to include one rectangular stainless steel pillar and one circular plastic pillar), the times they took to explore were measured for about 5 minutes. A recognition index (RI) was defined as: [(Exploration time for novel object in test compound group/Exploration time for all objects in test compound group)/(Exploration time for novel object in MK801 group/Exploration time for all objects in MK801 group)×100].
Table 2 below presents relative RIs of the compounds at a minimal dose […].

human α7 nAChR, sequence (P36544 23-502): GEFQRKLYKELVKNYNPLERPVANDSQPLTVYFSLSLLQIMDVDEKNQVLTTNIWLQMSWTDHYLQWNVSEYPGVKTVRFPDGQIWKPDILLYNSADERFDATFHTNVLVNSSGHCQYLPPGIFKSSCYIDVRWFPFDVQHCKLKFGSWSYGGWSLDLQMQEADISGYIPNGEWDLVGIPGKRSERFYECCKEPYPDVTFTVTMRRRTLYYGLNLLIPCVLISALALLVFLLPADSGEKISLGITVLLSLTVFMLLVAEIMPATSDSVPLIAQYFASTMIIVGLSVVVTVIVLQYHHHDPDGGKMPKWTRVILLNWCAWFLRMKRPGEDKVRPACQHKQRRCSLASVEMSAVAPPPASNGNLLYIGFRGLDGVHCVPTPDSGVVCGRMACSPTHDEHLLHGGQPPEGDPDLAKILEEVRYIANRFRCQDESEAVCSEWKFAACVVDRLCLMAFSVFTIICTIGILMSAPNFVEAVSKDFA

O=C(NC1CN2CCC1CC2)c1ccc(=O)n(-c2ccc(Cl)cc2)c1 (centres unmarked) [Example 4, N-(1-azabicyclo[2.2.2]octan-3-yl)-1-(4-chlorophenyl)-6-oxo-3-pyridinecarboxamide]
EC50 (human α7 nAChR): > 1000 nM | minimal effective dose at 3 mg/kg (Male ICR mice): 3 mg/kg

O=C(NC1CN2CCC1CC2)c1ccc(=O)n(-c2ccc(Cl)cc2Cl)c1 (centres unmarked) [Example 25, N-(1-azabicyclo[2.2.2]octan-3-yl)-1-(2,4-dichlorophenyl)-6-oxo-3-pyridinecarboxamide]
EC50 (human α7 nAChR): 500 to 1000 nM | minimal effective dose (Male ICR mice): 3 mg/kg

O=C(N[C@H]1CN2CCC1CC2)c1ccc(=O)n(-c2ccc(Cl)cc2Cl)c1 [Example 26, N-[(3R)-1-azabicyclo[2.2.2]octan-3-yl)-1-(2,4-dichlorophenyl)-6-oxo-3-pyridinecarboxamide]
EC50 (human α7 nAChR): 100 to 500 nM | minimal effective dose (Male ICR mice): 1 mg/kg

O=C(N[C@@H]1CN2CCC1CC2)c1ccc(=O)n(-c2ccc(Cl)cc2Cl)c1 [Example 27, N-[(3S)-1-azabicyclo[2.2.2]octan-3-yl)-1-(2,4-dichlorophenyl)-6-oxo-3-pyridinecarboxamide]
EC50 (human α7 nAChR): > 1000 nM | minimal effective dose (Male ICR mice): 1 mg/kg

Cc1ccc(-n2cc(C(=O)NC3CN4CCC3CC4)ccc2=O)c(Cl)c1 (centres unmarked) [Example 33, N-(1-azabicyclo[2.2.2]octan-3-yl)-1-(2-chloro-4-methylphenyl)-6-oxo-3-pyridinecarboxamide]
EC50 (human α7 nAChR): 100 to 500 nM | minimal effective dose (Male ICR mice): 1 mg/kg

COc1ccc(-n2cc(C(=O)NC3CN4CCC3CC4)ccc2=O)c(SC)c1 (centres unmarked) [Example 84, N-(1-azabicyclo[2.2.2]octan-3-yl)-1-[4-methoxy-2-(methylthio)phenyl]-6-oxo-3-pyridinecarboxamide]
EC50 (human α7 nAChR): < 100 nM | minimal effective dose (Male ICR mice): 0.3 mg/kg

CSc1cc(Cl)ccc1-n1cc(C(=O)NC2CN3CCC2CC3)ccc1=O (centres unmarked) [Example 86, N-(1-azabicyclo[2.2.2]octan-3-yl)-1-[4-chloro-2-(methylthio)phenyl]-6-oxo-3-pyridinecarboxamide]
EC50 (human α7 nAChR): < 100 nM | minimal effective dose (Male ICR mice): 0.3 mg/kg

CSc1cc(C)ccc1-n1cc(C(=O)NC2CN3CCC2CC3)ccc1=O (centres unmarked) [Example 89, N-(1-azabicyclo[2.2.2]octan-3-yl)-1-[4-methyl-2-(methylthio)phenyl]-6-oxo-3-pyridinecarboxamide]
EC50 (human α7 nAChR): < 100 nM | minimal effective dose (Male ICR mice): 0.03 mg/kg

CSc1cc(C)ccc1-n1cc(C(=O)N[C@@H]2CN3CCC2CC3)ccc1=O [Example 91, N-[(3S)-1-azabicyclo[2.2.2]octan-3-yl]-1-[4-methyl-2-(methylthio)phenyl]-6-oxo-3-pyridinecarboxamide]
EC50 (human α7 nAChR): 100 to 500 nM | minimal effective dose at 3 mg/kg (Male ICR mice): 3 mg/kg

CCCc1ccc(-n2cc(C(=O)NC3CN4CCC3CC4)ccc2=O)c(SC)c1 (centres unmarked) [Example 94, N-(1-azabicyclo[2.2.2]octan-3-yl)-1-[2-(methylthio)-4-propylphenyl]-6-oxo-3-pyridinecarboxamide]
EC50 (human α7 nAChR): < 100 nM

O=C(NC1CN2CCC1CC2)c1ccc(=O)n(-c2ccccc2Sc2ccccc2)c1 (centres unmarked) [Example 95, N-(1-azabicyclo[2.2.2]octan-3-yl)-6-oxo-1-[2-(phenylthio)phenyl]-3-pyridinecarboxamide]
EC50 (human α7 nAChR): < 100 nM

CSc1cc(C(C)C)ccc1-n1cc(C(=O)NC2CN3CCC2CC3)ccc1=O (centres unmarked) [Example 96, N-(1-azabicyclo[2.2.2]octan-3-yl)-1-[2-(methylthio)-4-propan-2-ylphenyl]-6-oxo-3-pyridinecarboxamide]
EC50 (human α7 nAChR): < 100 nM

CCSc1cc(Cl)ccc1-n1cc(C(=O)NC2CN3CCC2CC3)ccc1=O (centres unmarked) [Example 97, N-(1-azabicyclo[2.2.2]octan-3-yl)-1-[4-chloro-2-(ethylthio)phenyl]-6-oxo-3-pyridinecarboxamide]
EC50 (human α7 nAChR): < 100 nM

CCc1ccc(-n2cc(C(=O)NC3CN4CCC3CC4)ccc2=O)c(SC)c1 (centres unmarked) [Example 98, N-(1-azabicyclo[2.2.2]octan-3-yl)-1-[4-ethyl-2-(methylthio)phenyl]-6-oxo-3-pyridinecarboxamide]
EC50 (human α7 nAChR): < 100 nM

CSc1cc(C2CCCCC2)ccc1-n1cc(C(=O)NC2CN3CCC2CC3)ccc1=O (centres unmarked) [Example 99, N-(1-azabicyclo[2.2.2]octan-3-yl)-1-[4-cyclohexyl-2-(methylthio)phenyl]-6-oxo-3-pyridinecarboxamide]
EC50 (human α7 nAChR): 100 to 500 nM

CS(=O)(=O)c1ccc(-n2cc(C(=O)NC3CN4CCC3CC4)ccc2=O)cc1 (centres unmarked) [Example 101, N-(1-azabicyclo[2.2.2]octan-3-yl)-1-(4-methylsulfonylphenyl)-6-oxo-3-pyridinecarboxamide]
EC50 (human α7 nAChR): 100 to 500 nM

O=C(NC1CN2CCC1CC2)c1ccc(=O)n(-c2cccc3ccccc23)c1 (centres unmarked) [Example 102, N-(1-azabicyclo[2.2.2]octan-3-yl)-1-(1-naphthalenyl)-6-oxo-3-pyridinecarboxamide]
EC50 (human α7 nAChR): 100 to 500 nM

O=C(NC1CN2CCC1CC2)c1ccc(=O)n(-c2ccccc2-c2nccs2)c1 (centres unmarked) [Example 104, N-(1-azabicyclo[2.2.2]octan-3-yl)-6-oxo-1-[2-(2-thiazolyl)phenyl]-3-pyridinecarboxamide]
EC50 (human α7 nAChR): 100 to 500 nM | minimal effective dose (Male ICR mice): 3 mg/kg

O=C(NC1CN2CCC1CC2)c1ccc(=O)n(-c2ccc(Cl)cc2-c2nccs2)c1 (centres unmarked) [Example 105, N-(1-azabicyclo[2.2.2]octan-3-yl)-1-[4-chloro-2-(2-thiazolyl)phenyl]-6-oxo-3-pyridine carboxamide]
EC50 (human α7 nAChR): 500 to 1000 nM | minimal effective dose (Male ICR mice): 0.3 mg/kg

Cc1cnc(-c2ccccc2-n2cc(C(=O)NC3CN4CCC3CC4)ccc2=O)s1 (centres unmarked) [Example 106, N-(1-azabicyclo[2.2.2]octan-3-yl)-1-[2-(5-methyl-2-thiazolyl)phenyl]-6-oxo-3-pyridinecarboxamide]
EC50 (human α7 nAChR): 500 to 1000 nM

O=C(NC1CN2CCC1CC2)c1ccc(=O)n(-c2ccccc2-c2nc3ccccc3s2)c1 (centres unmarked) [Example 107, N-(1-azabicyclo[2.2.2]octan-3-yl)-1-[2-(1,3-benzothiazole-2-yl)phenyl]-6-oxo-3-pyridinecarboxamide]
EC50 (human α7 nAChR): < 100 nM

Cc1ccc(-c2ccc(-n3cc(C(=O)NC4CN5CCC4CC5)ccc3=O)cc2)s1 (centres unmarked) [Example 108, N-(1-azabicyclo[2.2.2]octan-3-yl)-1-[4-(5-methyl-2-thiophenyl)phenyl]-6-oxo-3-pyridinecarboxamide]
EC50 (human α7 nAChR): 100 to 500 nM

Cc1ccc(-c2ccc(-n3cc(C(=O)NC4CN5CCC4CC5)ccc3=O)c(Cl)c2)s1 (centres unmarked) [Example 109, N-(1-azabicyclo[2.2.2]octan-3-yl)-1-[2-chloro-4-(5-methyl-2-thiophenyl)phenyl]-6-oxo-3-pyridinecarboxamide]
EC50 (human α7 nAChR): 100 to 500 nM | minimal effective dose (Male ICR mice): 3 mg/kg

O=C(NC1CN2CCC1CC2)c1ccc(=O)n(-c2ccccc2-c2cccs2)c1 (centres unmarked) [Example 110, N-(1-azabicyclo[2.2.2]octan-3-yl)-6-oxo-1-(2-thiophene-2-ylphenyl)-3-pyridinecarboxamide]
EC50 (human α7 nAChR): 100 to 500 nM

Cc1ccc(-c2ccccc2-n2cc(C(=O)NC3CN4CCC3CC4)ccc2=O)s1 (centres unmarked) [Example 111, N-(1-azabicyclo[2.2.2]octan-3-yl)-1-[2-(5-methyl-2-thiophenyl)phenyl]-6-oxo-3-pyridinecarboxamide]
EC50 (human α7 nAChR): 100 to 500 nM

CN(C)c1ccc(-n2cc(C(=O)NC3CN4CCC3CC4)ccc2=O)cc1 (centres unmarked) [Example 113, N-(1-azabicyclo[2.2.2]octan-3-yl)-1-[4-dimethylaminophenyl]-6-oxo-3-pyridinecarboxamide]
EC50 (human α7 nAChR): 500 to 1000 nM
